Reference: patent US20220289746A1, “PYRROLIDINE DERIVATIVES” (Hoffmann-La Roche Inc., priority 2019, published 2022)

Experiments:
human M4 receptor [1] = molecular target: T1, human M4 receptor (Homo sapiens, UniProt P08173); experiment: cAMP assay for M4 positive allosteric modulators (M4 PAM cAMP assay); format: cell-based; set-up: expressed in transfected cells; host or cells: CHO-K1; details: Table 1; CHO-K1 cells expressing human M4; forskolin 7.5 μM + acetylcholine EC20 (0.2 nM)
T1 sequence (P08173 1-479): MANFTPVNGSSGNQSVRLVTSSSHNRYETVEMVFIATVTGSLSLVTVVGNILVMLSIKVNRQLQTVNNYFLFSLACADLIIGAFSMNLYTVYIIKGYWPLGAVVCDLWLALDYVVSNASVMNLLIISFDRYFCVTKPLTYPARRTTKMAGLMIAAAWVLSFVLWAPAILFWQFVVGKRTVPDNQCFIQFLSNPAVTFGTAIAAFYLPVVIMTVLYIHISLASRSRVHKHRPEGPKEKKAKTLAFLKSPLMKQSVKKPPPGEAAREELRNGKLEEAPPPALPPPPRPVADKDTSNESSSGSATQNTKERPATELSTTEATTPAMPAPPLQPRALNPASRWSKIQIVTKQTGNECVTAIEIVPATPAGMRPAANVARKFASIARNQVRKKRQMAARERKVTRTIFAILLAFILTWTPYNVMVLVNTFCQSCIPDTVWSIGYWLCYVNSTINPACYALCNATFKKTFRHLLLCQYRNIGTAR
Experimental: The potency of M4 PAMs was determined using a cell-based cyclic adenosine monophosphate assay. The assay was performed with CHO-Kl cells stably expressing untagged human M4 receptor and cAMP was quantified using the Nano-TRF Detection Assay kit (Roche, Cat. No. 05214386) as described in the kit instructions. The cells were grown in Ham's F-12 Nutrient mix supplemented with 10% FBS and 200 μg/ml geneticin until they reached 80% confluency. The cells were washed with PBS, detached with accutase and resuspended in assay buffer consisting of HBSS and 0.1% BSA. They were then seeded in black 384-well plates (Corning, Cat. No. 3764) at a density of 20,000 cells/20 μl per well until the addition of compounds.
Test compounds were serially diluted 1:2 in 100% DMSO and spotted in 384-well plates at 0.5 μl/well. The compounds were then diluted in water containing IBMX (Sigma, Cat. No. 17018) and a sample (5 μl) was added to the cells for 15 minutes at 37° C./5% CO2. After this incubation the cells were stimulated with a combination of forskolin (7.5 μM) and acetylcholine EC20 (0.2 nM) in assay buffer for 30 minutes at 37° C./5% CO2. The assay was stopped by adding cAMP detection mix (15 μl/well, containing detergents for cell lysis) for one hour at RT.
The test plates were read using a SpectraMax i3x reader (Molecular Devices). The exported raw data was used to calculate the FRET signal based on the P-factor as per cAMP kit instructions. The data was normalized to the activity of acetylcholine plus forskolin, with 2 nM of acetylcholine plus 7.5 μM forskolin defined as 100% activity. Dose response curves were fitted to the percent activity data of the compounds using a sigmoidal dose response model (XLfit, IDBS) and the data were reported as EC50 and percent efficacy.

human M4 receptor [2] = molecular target: T1, human M4 receptor; experiment: Calcium flux assay using fluorescent imaging (M4 PAM FLIPR assay); format: cell-based; set-up: expressed in transfected cells; host or cells: CHO (monoclonal line, clone 2); details: Table 1; CHO cells expressing human M4+Gqi5; acetylcholine EC20
Experimental: CHO cells were transfected with expression plasmid encoding the human M4 receptor and a Gqi5 construct to redirect Gi signaling to calcium. Stable cells were cloned by limiting dilution to yield a monoclonal cell line expressing human M4+Gqi5 (clone 2). The stable cells were grown in DMEM containing 10% FBS, 200 ug/ml Geneticin and 800 ug/ml Hygromycin at 37° C. in a 10% CO2 incubator at 95% humidity.
Calcium Flux Assay Using Fluorescent Imaging (“M4 PAM FLIPR” Assay)
On the afternoon before the assay, cells were plated at a density of 50,000 cells/well into black 96 well plates with clear bottoms to yield a confluent monolayer the next day. Hanks balanced salt solution, without phenol red, containing 20 mM HEPES (pH 7.3) and 2.5 mM probenecid (assay buffer) was prepared fresh for each experiment. Compound dilutions were made using a Beckman Biomek 2000 laboratory automation workstation, in assay buffer. The dye-loading buffer consisted of a final concentration of 2 μM Fluo-4-AM (dissolved in DMSO and pluronic acid) and 65 μg/ml amidoblack in assay buffer. The existing culture media was removed from the wells and 100 μl of the dye-loading buffer was added to each well and incubated for approximately 90 min at 37° C. in a 5% CO2 incubator at 95% humidity.
Calcium flux in the dye-loaded cells was measured with the fluorescence reader Hamamatsu FDSS 7000. To test compounds as agonists, compound addition (25 μl) was made 10 s into the fluorescent measurements and fluorescent response was recorded for 3 minutes. The fluorescence data was expressed as percentage of the fluorescence obtained by an EC100 concentration (3 μM) of the endogenous full agonist acetylcholine. Each test compound concentration-response curve was constructed using a four parameter logistic equation in Microsoft Excel XLFit as follows:
Y=Minimum+((Maximum−Minimum)/(1+10^(LogEC50−X)nH)).
The concentration of agonist that produced a half-maximal response is represented by the EC50 value. Maximum and minimum are the maximum and minimum fluorescence signal in % respectively. nH is the Hill slope.
To measure positive allosteric modulator activity 25 μl of an EC20 concentration of the endogenous agonist acetylcholine is added to the cells already pre-incubated with the test compound for 15 minutes.
The M4 PAM dose response is constructed using the agonist dose-response equation above. The concentration of PAM that produced a half-maximal response is represented by the EC50 value and the maximum signal measured is the PAM efficacy expressed in % of the EC100 (3 μM) acetylcholine response. • cAMP Assay for M4 Positive Allosteric Modulators (“M4 PAM cAMP” Assay)

SMILES | EC50 (human M4 receptor [1]) [nM] | EC50 (human M4 receptor [2]) [nM]
Cc1nc2c(c(C)c1Cl)CN(C(=O)[C@@H]1CCN(c3ccnc(C(F)(F)F)c3)C1)C2 [Example 21, (3-chloro-2,4-dimethyl-5,7-dihydropyrrolo[3,4-b]pyridin-6-yl)-[(3R)-1-[2-(trifluoromethyl)-4-pyridyl]pyrrolidin-3-yl]methanone] | 131 | 550
COc1cc(N2CC[C@@H](C(=O)N3Cc4nc(C)c(Cl)c(C)c4C3)C2)ccn1 [Example 22, (3-chloro-2,4-dimethyl-5,7-dihydropyrrolo[3,4-b]pyridin-6-yl)-[(3R)-1-(2-methoxy-4-pyridyl)pyrrolidin-3-yl]methanone] | 507 | 677
Cc1nc2c(c(C)c1Cl)CN(C(=O)[C@@H]1CCN(c3ccnc(C(F)(F)F)n3)C1)C2 [Example 23, (3-chloro-2,4-dimethyl-5,7-dihydropyrrolo[3,4-b]pyridin-6-yl)-[(3R)-1-[2-(trifluoromethyl)pyrimidin-4-yl]pyrrolidin-3-yl]methanone] | 791 | 907
Cc1nc2c(c(C)c1Cl)CN(C(=O)[C@@H]1CCN(c3ccnc(C#N)n3)C1)C2 [Example 24, 4-[(3R)-3-(3-chloro-2,4-dimethyl-5,7-dihydropyrrolo[3,4-b]pyridine-6-carbonyl)pyrrolidin-1-yl]pyrimidine-2-carbonitrile] | 164 | 235
COc1nccc(N2CC[C@@H](C(=O)N3Cc4nc(C)c(Cl)c(C)c4C3)C2)n1 [Example 25, (3-chloro-2,4-dimethyl-5,7-dihydropyrrolo[3,4-b]pyridin-6-yl)-[(3R)-1-(2-methoxypyrimidin-4-yl)pyrrolidin-3-yl]methanone] | 4770 | 1600
Cc1cc(N2CC[C@@H](C(=O)N3Cc4nc(C)c(Cl)c(C)c4C3)C2)ncn1 [Example 26, (3-chloro-2,4-dimethyl-5,7-dihydropyrrolo[3,4-b]pyridin-6-yl)-[(3R)-1-(6-methylpyrimidin-4-yl)pyrrolidin-3-yl]methanone] | 120 | 166
Cc1nc2c(c(C)c1Cl)CN(C(=O)[C@@H]1CCN(c3cc(C(F)(F)F)ncn3)C1)C2 [Example 27, (3-chloro-2,4-dimethyl-5,7-dihydropyrrolo[3,4-b]pyridin-6-yl)-[(3R)-1-[6-(trifluoromethyl)pyrimidin-4-yl]pyrrolidin-3-yl]methanone] | 230 | 330
Cc1nc2c(c(C)c1Cl)CN(C(=O)[C@@H]1CCN(c3cc(C4CC4)ncn3)C1)C2 [Example 28, (3-chloro-2,4-dimethyl-5,7-dihydropyrrolo[3,4-b]pyridin-6-yl)-[(3R)-1-(6-cyclopropylpyrimidin-4-yl)pyrrolidin-3-yl]methanone] | 259 | 350
COc1cc(N2CC[C@@H](C(=O)N3Cc4nc(C)c(Cl)c(C)c4C3)C2)ncn1 [Example 29, (3-chloro-2,4-dimethyl-5,7-dihydropyrrolo[3,4-b]pyridin-6-yl)-[(3R)-1-(6-methoxypyrimidin-4-yl)pyrrolidin-3-yl]methanone] | 951 | 591
Cc1nc2c(c(C)c1Cl)CN(C(=O)[C@@H]1CCN(c3cncnc3)C1)C2 [Example 30, (3-chloro-2,4-dimethyl-5,7-dihydropyrrolo[3,4-b]pyridin-6-yl)-[(3R)-1-pyrimidin-5-ylpyrrolidin-3-yl]methanone] | 65 | 59
Cc1ncc(N2CC[C@@H](C(=O)N3Cc4nc(C)c(Cl)c(C)c4C3)C2)cn1 [Example 31, (3-chloro-2,4-dimethyl-5,7-dihydropyrrolo[3,4-b]pyridin-6-yl)-[(3R)-1-(2-methylpyrimidin-5-yl)pyrrolidin-3-yl]methanone] | 482 | 388
Cc1nc2c(c(C)c1Cl)CN(C(=O)[C@@H]1CCN(c3cnc(C(F)(F)F)nc3)C1)C2 [Example 32, (3-chloro-2,4-dimethyl-5,7-dihydropyrrolo[3,4-b]pyridin-6-yl)-[(3R)-1-[2-(trifluoromethyl)pyrimidin-5-yl]pyrrolidin-3-yl]methanone] | 1940 | 1950
